Results reported in ChEMBL document CHEMBL1150909, “Magnone A and B, novel anti-PAF tetrahydrofuran lignans from the flower buds of Magnolia fargesii” (J Nat Prod, 1998).

Key:
[1] = Displacement of [3H]PAF from rabbit PAF receptor by liquid scintillation counting; design: species or system Oryctolagus cuniculus
Oryctolagus cuniculus [2] = organism: Oryctolagus cuniculus; assay: Displacement of [3H]PAF from rabbit PAF receptor at 25 uM by liquid scintillation counting
Oryctolagus cuniculus [3] = organism: Oryctolagus cuniculus; assay: Displacement of [3H]PAF from rabbit PAF receptor at 50 uM by liquid scintillation counting
Oryctolagus cuniculus [4] = organism: Oryctolagus cuniculus; assay: Displacement of [3H]PAF from rabbit PAF receptor at 12.5 uM by liquid scintillation counting
Oryctolagus cuniculus [5] = organism: Oryctolagus cuniculus; assay: Displacement of [3H]PAF from rabbit PAF receptor at 100 uM by liquid scintillation counting

Row | IC50 [1] [µM] | Activity (Oryctolagus cuniculus [2]) [%] | Activity (Oryctolagus cuniculus [3]) [%] | Activity (Oryctolagus cuniculus [4]) [%] | Activity (Oryctolagus cuniculus [5]) [%] | SMILES
1 | 19 | – | – | – | – | C[C@@H]1C(=O)O[C@H]2[C@H](O)[C@@]34[C@H]5C[C@@H](C(C)(C)C)[C@]36[C@@H](OC(=O)[C@@H]6O)O[C@@]4(C(=O)O5)[C@@]12O [GINKOLIDE B]
2 | 38 | 41.6 | 56.7 | 19.4 | 75.2 | COc1ccc(C(=O)[C@H]2CO[C@H](c3ccc(OC)c(OC)c3)[C@H]2CO)cc1OC [MAGNONE A]
3 | 27 | 42.9 | 64.3 | 37.1 | 81.7 | COc1ccc(C(=O)[C@H]2CO[C@H](c3cc(OC)c(OC)c(OC)c3)[C@H]2CO)cc1OC [MAGNONE B]
